This assay deals with Streptococcus pneumoniae ATCC 6305. The assay can be described thus: MIC by dilution method on microplates (NCCLS M7-A2). Type of assay: cell-based. The settings on record: in vitro. The procedure:
Minimal inhibitory concentrations (MIC, in μg/ml) are determined by dilution method on microplates according to recommendations of National Committee for Clinical Laboratory Standards (NCCLS, M7-A2). So e.g. the minimal inhibitory concentration on Streptococcus pneumoniae ATCC 6305 for the compounds from Examples 1 and 4 is 2 μg/ml and for compounds from Examples 2 and 3 is 1 μg/ml. Thus, they can be used for disinfection of rooms, surgical instruments and people as well as therapeutic agents in the treatment of infective diseases in animals, specially mammals, or humans that are caused by a wide spectrum of gram-positive bacteria, microorganisms or generally pathogenic microorganisms which are sensitive to the compounds of the formula 1. For this purpose the above compounds or their pharmaceutically acceptable salts with acids may be used orally in usual doses from 0.2 mg/kg body weight per day to about 250 mg/kg/day, most frequently from 5-50 mg/kg/day, or parenterally in the form of subcutaneous or intramuscular injections.

Converted amounts (≈) assume the structure as drawn.

Regarding `CCC1OC(=O)C(C)C(OC2CC(C)(OC)C(O)C(C)O2)C(C)C(OC2OC(C)CC(N(C)C)C2O)C(C)(O)CC(C)CN(C(=O)NS(=O)(=O)c2ccccc2C)C(C)C(O)C1(C)O` (stereo not shown) [Example 3, 9-Deoxo-9-dihydro-9a-N-[N′-(o-toluenesulfonyl)carbamoyl]-9a-aza-9a-homoerythromycin A], the “minimal inhibitory concentration (MIC)” value was found to be 1 µg/mL (≈ 1.07 µM).

Turning to `CCC1OC(=O)C(C)C(OC2CC(C)(OC)C(O)C(C)O2)C(C)C(OC2OC(C)CC(N(C)C)C2O)C(C)(O)CC(C)CN(C(=O)NS(=O)(=O)c2ccccc2)C(C)C(O)C1(C)O` (stereo not shown) [Example 4, 9-Deoxo-9-dihydro-9a-N-[N′-(benzenesulfonyl)carbamoyl]-9a-aza-9a-homoerythromycin A], the “minimal inhibitory concentration (MIC)” value came to 2 µg/mL (≈ 2.18 µM).

For `CCC1OC(=O)C(C)C(OC2CC(C)(OC)C(O)C(C)O2)C(C)C(OC2OC(C)CC(N(C)C)C2O)C(C)(O)CC(C)CN(C(=O)NS(=O)(=O)c2ccc(Cl)cc2)C(C)C(O)C1(C)O` (stereo not shown) [Example 1, 9-Deoxo-9-dihydro-9a-N-[N′-(4-chlorobenzenesufonyl)carbamoyl]-9a-aza-9a-homoerythromycin A], the “minimal inhibitory concentration (MIC)” value is 2 µg/mL (≈ 2.1 µM).

Take `CCC1OC(=O)C(C)C(OC2CC(C)(OC)C(O)C(C)O2)C(C)C(OC2OC(C)CC(N(C)C)C2O)C(C)(O)CC(C)CN(C(=O)NS(=O)(=O)c2ccc(C)cc2)C(C)C(O)C1(C)O` (stereo not shown) [Example 2, 9-Deoxo-9-dihydro-9a-N-[N′-(p-toluenesulfonyl)carbamoyl]-9a-aza-9a-homoerythromycin A]: the “minimal inhibitory concentration (MIC)” value turned out to be 1 µg/mL (≈ 1.07 µM).

Values taken from US6852702B2, “9a-N-[N′-(phenylsulfonyl)carbamoyl] derivatives of 9-deoxo-9-dihydro-9a-aza-9a-homoerythromycin A and of 5-O-desosaminyl-9-deoxo-9-dihydro-9a-aza-9a-homoerythronolide A” (Pliva D.D., priority 2002, dated 2005).
